In data set [1] the target is T1, Protein deacetylase HDAC6 (Homo sapiens, UniProt Q9UBN7).
T1 sequence (Q9UBN7 whole entry): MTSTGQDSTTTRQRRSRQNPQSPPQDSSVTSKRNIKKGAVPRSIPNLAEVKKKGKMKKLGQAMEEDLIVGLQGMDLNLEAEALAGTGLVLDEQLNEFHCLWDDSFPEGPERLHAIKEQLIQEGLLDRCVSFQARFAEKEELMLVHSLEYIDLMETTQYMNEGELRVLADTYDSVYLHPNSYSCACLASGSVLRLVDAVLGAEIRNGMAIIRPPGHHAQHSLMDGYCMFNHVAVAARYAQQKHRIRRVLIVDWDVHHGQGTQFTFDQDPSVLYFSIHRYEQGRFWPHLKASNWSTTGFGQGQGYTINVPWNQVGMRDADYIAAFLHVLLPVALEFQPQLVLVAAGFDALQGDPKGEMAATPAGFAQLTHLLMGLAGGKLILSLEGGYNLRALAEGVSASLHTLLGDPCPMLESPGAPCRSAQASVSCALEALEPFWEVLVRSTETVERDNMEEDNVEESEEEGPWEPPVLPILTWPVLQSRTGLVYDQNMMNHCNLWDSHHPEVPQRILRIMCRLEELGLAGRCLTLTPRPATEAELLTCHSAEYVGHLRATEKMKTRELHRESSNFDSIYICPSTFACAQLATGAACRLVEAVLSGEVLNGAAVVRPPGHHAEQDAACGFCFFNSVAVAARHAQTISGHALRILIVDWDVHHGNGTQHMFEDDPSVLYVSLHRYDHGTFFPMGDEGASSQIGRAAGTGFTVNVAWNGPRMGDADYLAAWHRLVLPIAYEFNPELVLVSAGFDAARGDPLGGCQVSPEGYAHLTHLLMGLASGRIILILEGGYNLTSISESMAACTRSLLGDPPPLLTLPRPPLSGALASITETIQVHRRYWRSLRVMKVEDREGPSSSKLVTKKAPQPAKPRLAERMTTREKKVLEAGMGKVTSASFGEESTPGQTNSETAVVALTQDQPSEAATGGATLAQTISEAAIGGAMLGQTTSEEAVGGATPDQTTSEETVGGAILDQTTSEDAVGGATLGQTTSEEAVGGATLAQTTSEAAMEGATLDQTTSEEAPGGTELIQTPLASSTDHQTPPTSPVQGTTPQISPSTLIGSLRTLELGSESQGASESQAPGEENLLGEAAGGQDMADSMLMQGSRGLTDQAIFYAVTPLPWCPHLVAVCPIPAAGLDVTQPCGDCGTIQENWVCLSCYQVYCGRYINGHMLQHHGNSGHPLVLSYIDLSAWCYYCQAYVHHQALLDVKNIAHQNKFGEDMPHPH
In words: Inhibition of HDAC6 in human BEAS-2B cells assessed as deacetylation of acetylated alpha-tubulin level incubated for 24 hrs by Western blot analysis. The class given is cell-based.

The target of data set [2] is T2, Histone deacetylase 11 (Homo sapiens, UniProt Q96DB2).
T2 sequence (Q96DB2 whole entry): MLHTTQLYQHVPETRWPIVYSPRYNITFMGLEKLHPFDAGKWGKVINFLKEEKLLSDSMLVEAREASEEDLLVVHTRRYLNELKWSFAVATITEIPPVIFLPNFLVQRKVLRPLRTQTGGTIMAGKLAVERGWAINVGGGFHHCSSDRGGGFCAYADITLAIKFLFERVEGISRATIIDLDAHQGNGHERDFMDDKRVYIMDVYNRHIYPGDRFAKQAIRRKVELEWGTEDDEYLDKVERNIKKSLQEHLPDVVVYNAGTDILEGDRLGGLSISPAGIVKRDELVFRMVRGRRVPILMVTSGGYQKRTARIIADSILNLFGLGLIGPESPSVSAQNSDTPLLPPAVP
In words: Inhibition of human recombinant HDAC11 incubated for 30 mins by fluorimetry analysis.

In data set [3] the target is Histone deacetylase 2 (Homo sapiens, UniProt Q92769). In words: Inhibition of human recombinant HDAC2 incubated for 15 mins by fluorimetry analysis.
Data set [4] deals with Histone deacetylase 3 (Homo sapiens, UniProt O15379). In words: Inhibition of human recombinant HDAC3 incubated for 10 mins by Spectrophotometric analysis.
Data set [5] concerns the target Histone deacetylase 5 (Homo sapiens, UniProt Q9UQL6). As to the kind of experiment: Inhibition of human recombinant HDAC5 incubated for 30 mins by fluorimetry analysis.
Data set [6] concerns THP-1. As to the kind of experiment: Cytotoxicity against human THP-1 cells assessed as reduction in cell viability by alamar blue staining based assay. The note with it: for pIC50: read-out: IC50; for IC50: read-out: pIC50 (converted). Format: functional. Background: The colour change of resazurin is a common sign of viable cells or microbes.
The target in data set [7] is T1, Protein deacetylase HDAC6. In words: Inhibition of human recombinant HDAC6 incubated for 30 mins by fluorimetry analysis.
Data set [8] is described as follows: Aqueous solubility of the compound at pH 7.4. The class given is physicochemical.
Data set [9] deals with T3, Histone deacetylase 7 (Homo sapiens, UniProt Q8WUI4).
T3 sequence (Q8WUI4 whole entry): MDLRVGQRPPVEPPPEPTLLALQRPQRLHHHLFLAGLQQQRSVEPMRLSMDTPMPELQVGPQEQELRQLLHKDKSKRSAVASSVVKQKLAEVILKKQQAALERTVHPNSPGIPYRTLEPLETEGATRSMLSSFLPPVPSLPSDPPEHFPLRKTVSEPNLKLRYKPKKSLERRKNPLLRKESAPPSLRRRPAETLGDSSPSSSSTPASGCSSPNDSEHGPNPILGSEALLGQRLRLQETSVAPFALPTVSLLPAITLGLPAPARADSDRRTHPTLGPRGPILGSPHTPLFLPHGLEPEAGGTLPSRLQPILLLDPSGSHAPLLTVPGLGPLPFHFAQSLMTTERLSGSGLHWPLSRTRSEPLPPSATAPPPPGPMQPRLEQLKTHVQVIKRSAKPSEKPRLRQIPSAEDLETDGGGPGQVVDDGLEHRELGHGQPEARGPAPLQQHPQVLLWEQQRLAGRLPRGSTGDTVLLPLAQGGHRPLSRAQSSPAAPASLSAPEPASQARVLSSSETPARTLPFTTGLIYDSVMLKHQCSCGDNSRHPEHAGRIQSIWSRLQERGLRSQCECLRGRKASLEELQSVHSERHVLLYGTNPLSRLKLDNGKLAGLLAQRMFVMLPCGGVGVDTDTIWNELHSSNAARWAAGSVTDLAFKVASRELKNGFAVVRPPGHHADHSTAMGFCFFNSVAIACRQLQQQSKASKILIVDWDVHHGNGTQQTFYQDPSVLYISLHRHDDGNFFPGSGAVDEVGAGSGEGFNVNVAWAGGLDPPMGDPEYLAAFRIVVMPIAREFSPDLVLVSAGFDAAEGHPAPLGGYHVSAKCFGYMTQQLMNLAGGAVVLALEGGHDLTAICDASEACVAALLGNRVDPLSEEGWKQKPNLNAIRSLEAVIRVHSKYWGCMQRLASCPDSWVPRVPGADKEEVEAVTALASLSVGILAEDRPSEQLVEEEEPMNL
As to the kind of experiment: Inhibition of human recombinant HDAC7 incubated for 30 mins by fluorimetry analysis.

Data set [10] addresses Histone deacetylase 1 (Homo sapiens, UniProt Q13547). In words: Inhibition of human recombinant HDAC1 incubated for 15 mins by fluorimetry analysis.
Data set [11] deals with T1, Protein deacetylase HDAC6. In words: Stability of the compound assessed as full-length human HDAC6 mediated-drug degradation measured after 96 hrs by time-resolved mass spectrometry analysis. Format: ADME.

Data on four compounds can be found in ChEMBL document CHEMBL5370608, “Selective and Bioavailable HDAC6 2-(Difluoromethyl)-1,3,4-oxadiazole Substrate Inhibitors and Modeling of Their Bioactivation Mechanism” (J Med Chem, 2023).

pEC50, pIC50: −log10 of the molar value. Values after ≈ are worked out from the molar mass of the structure shown.

Broadly, the pEC50 is −log10 of the EC50, conventionally taken in molar units. One may read the pIC50 as the negative decadic logarithm of the IC50, by convention in mol/L. In general, solubility refers to the concentration that dissolves in the medium under given conditions. Lower therefore signals little dissolved substance.

Sequence of Histone deacetylase 5 (Q9UQL6 whole entry): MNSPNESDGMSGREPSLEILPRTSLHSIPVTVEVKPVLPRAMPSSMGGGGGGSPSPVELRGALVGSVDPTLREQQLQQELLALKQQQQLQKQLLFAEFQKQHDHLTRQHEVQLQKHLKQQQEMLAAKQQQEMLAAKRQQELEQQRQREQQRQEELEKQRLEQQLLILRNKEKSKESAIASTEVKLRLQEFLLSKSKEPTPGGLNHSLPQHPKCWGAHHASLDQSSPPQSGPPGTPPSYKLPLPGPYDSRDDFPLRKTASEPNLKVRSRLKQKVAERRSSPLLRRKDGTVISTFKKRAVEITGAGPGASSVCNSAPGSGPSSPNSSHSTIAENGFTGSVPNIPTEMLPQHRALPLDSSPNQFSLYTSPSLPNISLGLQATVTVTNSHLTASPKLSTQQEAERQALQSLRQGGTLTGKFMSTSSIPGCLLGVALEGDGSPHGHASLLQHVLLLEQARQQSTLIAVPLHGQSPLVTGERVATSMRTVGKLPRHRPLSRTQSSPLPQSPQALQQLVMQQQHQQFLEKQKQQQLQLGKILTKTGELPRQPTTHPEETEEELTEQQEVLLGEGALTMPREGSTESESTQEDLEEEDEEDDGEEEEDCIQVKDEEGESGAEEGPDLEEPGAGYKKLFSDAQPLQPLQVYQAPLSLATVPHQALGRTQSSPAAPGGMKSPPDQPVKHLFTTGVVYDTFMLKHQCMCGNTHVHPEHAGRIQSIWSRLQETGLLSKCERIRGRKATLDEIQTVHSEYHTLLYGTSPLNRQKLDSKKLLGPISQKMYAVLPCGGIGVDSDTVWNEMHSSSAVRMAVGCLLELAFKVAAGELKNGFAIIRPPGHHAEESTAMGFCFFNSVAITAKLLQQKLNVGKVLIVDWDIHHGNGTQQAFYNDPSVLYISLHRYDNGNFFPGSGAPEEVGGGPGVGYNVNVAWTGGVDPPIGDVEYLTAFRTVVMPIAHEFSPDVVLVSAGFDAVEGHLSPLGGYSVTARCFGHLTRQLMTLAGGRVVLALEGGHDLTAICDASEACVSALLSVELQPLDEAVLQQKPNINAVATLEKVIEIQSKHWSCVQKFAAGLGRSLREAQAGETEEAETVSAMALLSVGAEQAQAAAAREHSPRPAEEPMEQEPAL
Sequence of Histone deacetylase 1 (Q13547 whole entry): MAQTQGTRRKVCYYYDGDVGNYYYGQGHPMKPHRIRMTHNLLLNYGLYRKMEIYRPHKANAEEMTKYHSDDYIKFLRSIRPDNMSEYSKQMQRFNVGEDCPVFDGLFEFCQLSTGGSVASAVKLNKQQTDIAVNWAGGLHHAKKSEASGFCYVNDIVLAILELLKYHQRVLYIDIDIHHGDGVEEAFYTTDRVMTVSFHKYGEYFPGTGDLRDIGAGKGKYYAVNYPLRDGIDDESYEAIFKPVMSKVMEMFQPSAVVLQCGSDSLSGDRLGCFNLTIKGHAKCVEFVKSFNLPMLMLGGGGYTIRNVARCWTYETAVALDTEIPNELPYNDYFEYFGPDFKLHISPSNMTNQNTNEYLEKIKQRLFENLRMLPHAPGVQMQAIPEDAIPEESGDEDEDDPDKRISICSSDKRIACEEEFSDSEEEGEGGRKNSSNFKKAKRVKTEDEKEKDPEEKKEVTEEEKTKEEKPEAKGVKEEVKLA
Sequence of Histone deacetylase 3 (O15379 whole entry): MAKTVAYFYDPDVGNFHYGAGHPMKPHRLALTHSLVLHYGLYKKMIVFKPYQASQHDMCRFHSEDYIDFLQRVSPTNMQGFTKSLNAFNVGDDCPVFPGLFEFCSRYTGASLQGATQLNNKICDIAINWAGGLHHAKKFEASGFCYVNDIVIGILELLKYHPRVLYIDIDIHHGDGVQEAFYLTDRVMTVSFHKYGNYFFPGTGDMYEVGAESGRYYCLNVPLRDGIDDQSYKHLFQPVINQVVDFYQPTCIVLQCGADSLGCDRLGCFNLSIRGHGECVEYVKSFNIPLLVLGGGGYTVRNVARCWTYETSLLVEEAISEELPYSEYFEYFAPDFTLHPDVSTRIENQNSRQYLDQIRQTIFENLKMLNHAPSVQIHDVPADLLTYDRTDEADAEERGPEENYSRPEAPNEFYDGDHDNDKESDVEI
Sequence of Histone deacetylase 2 (Q92769 whole entry): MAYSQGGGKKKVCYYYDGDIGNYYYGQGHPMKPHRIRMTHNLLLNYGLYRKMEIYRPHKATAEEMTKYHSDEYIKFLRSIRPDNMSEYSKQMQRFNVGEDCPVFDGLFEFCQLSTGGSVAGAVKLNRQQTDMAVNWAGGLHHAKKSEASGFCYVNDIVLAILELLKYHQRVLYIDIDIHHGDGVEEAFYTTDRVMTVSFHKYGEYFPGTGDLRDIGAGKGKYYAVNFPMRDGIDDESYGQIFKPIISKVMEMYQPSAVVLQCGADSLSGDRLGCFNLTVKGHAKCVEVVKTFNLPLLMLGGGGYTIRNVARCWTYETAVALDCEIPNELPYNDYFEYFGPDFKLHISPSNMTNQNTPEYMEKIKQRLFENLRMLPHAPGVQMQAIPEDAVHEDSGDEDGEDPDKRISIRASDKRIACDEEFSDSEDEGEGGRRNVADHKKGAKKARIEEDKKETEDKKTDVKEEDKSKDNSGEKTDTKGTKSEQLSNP

Regarding `O=C(NO)c1cnc(NC2(c3ccccc3)CCC(F)(F)CC2)nc1`, the pEC50 in [1] is 7.10. Besides, the pIC50 in [2] is 4.89; in data set [3], 4.15; in [4], 4.06; in data set [5], 5.43; in data set [6] it was 4.03; in [7] it was above 8.00. Further, the pIC50 in data set [9] is 5.19; in data set [10] it was 4.77. In addition, the IC50 in [6] was 100 µM. Besides, the concentration in solution in data set [8] (solubility) came to 810 µM (≈ 282 µg/mL). The Stability entry in data set [11] was “Stable”.
With `CS(=O)(=O)NCC(Nc1ncc(-c2nnc(C(F)F)o2)cn1)c1ccc(OC(F)(F)F)cc1` (centres undefined), the pEC50 in [1] was 7.20. In addition, the pIC50 in data set [2] was below 4.00; in [3], below 4.00; in data set [4], below 4.00; in [5], below 4.00; in [6], 3.90; in data set [7], 6.24. In addition, the figures for the negative-log IC50 (pIC50) in [9] and in data set [10] were 4.52 and below 4.00, respectively. Also, the IC50 in data set [6] was 126 µM. The compound further came in with a solubility in data set [8] of 110 µM (≈ 54.4 µg/mL). In addition, the Stability entry in [11] is reported as “Unstable”.
Regarding `FC(F)c1nnc(-c2ccc(Cn3nnc(-c4ccccn4)n3)nc2)o1`, in [1], the pEC50 is 6.60. In addition, the pIC50 in [2] was below 4.00; in data set [3], below 4.00; in data set [4] it was below 4.00; in data set [5], below 4.00; in [7] it was 6.72; in data set [9], below 4.00. Also, the negative logarithm of the IC50 (pIC50) in data set [10] is below 4.00. Besides, the IC50 in data set [6] was above 251 µM. In data set [8], the concentration in solution (solubility) came to 410 µM (≈ 146 µg/mL). In addition, the Stability result in data set [11] is recorded as “Unstable”.
`COc1ccccc1-c1nnn(Cc2ccc(-c3nnc(C(F)F)o3)cn2)n1`: the negative-log EC50 (pEC50) in data set [1] was 6.50. Also, the pIC50 in [2] is below 4.00; in data set [3], below 4.00; in data set [4], below 4.00; in data set [5], below 4.00; in [7], 6.77; in data set [9] it was below 4.00. For the same compound, the pIC50 in data set [10] was below 4.00. In addition, the solubility in data set [8] turned out to be 60 µM (≈ 23.1 µg/mL).
